Laboratory results taken from the NIST ThermoML archive (doi:10.1016/j.fluid.2016.06.028).

Settings: for surface tension liquid-gas: Ring tensiometer; for viscosity / electrical conductivity / mass density: 101.33 kPa, Liquid; for viscosity: Concentric cylinders viscometry; for electrical conductivity: Direct current cell with electrodes; for mass density: Vibrating tube method

CCC[N+](C)(C)CC.O=S(=O)([N-]S(=O)(=O)C(F)(F)F)C(F)(F)F
Settings	electrical conductivity [S/m]	mass density [kg/m3]	surface tension liquid-gas [mN/m]	viscosity [mPa·s]
298.15 K	0.248	1403	46.56	58.79
303.15 K	0.281	1398.8	45.84	53.39
313.15 K	0.325	1389.8	44.92	38.39
323.15 K	0.358	1381	43.95	28.49
333.15 K	0.414	1372.1	43.34	21.3
343.15 K	0.519	1362.4	42.03	17.1
353.15 K	0.634	1352.7	40.89	14.1

COCC[N+]1(C)CCOCC1.O=S(=O)([N-]S(=O)(=O)C(F)(F)F)C(F)(F)F
Settings	electrical conductivity [S/m]	mass density [kg/m3]	surface tension liquid-gas [mN/m]	viscosity [mPa·s]
298.15 K	0.065	1500.2	50.14	257.6
303.15 K	0.079	1495.7	49.3	210.9
313.15 K	0.108	1486.4	48.41	127.2
323.15 K	0.136	1477.2	47.64	77.98
333.15 K	0.17	1468	46.3	51.89
343.15 K	0.257	1458.9	45.36	37.49
353.15 K	0.334	1449.8	44.74	27.59

COCC[N+]1(C)CCCC1.O=S(=O)([N-]S(=O)(=O)C(F)(F)F)C(F)(F)F
Settings	electrical conductivity [S/m]	mass density [kg/m3]	surface tension liquid-gas [mN/m]	viscosity [mPa·s]
298.15 K	0.345	1453	49.22	52.19
303.15 K	0.402	1448.7	48.62	46.49
313.15 K	0.48	1439.3	47.34	34.49
323.15 K	0.534	1429.9	46.18	25.79
333.15 K	0.59	1420.7	45	20.1
343.15 K	0.648	1411.2	44.26	16.8
353.15 K	0.699	1401.9	42.28	13.5

CC[N+](C)(C)CCOC.O=S(=O)([N-]S(=O)(=O)C(F)(F)F)C(F)(F)F
Settings	electrical conductivity [S/m]	mass density [kg/m3]	surface tension liquid-gas [mN/m]	viscosity [mPa·s]
298.15 K	0.288	1424.9	47.56	59.39
303.15 K	0.315	1420.5	47.32	50.39
313.15 K	0.357	1411	45.67	30.59
323.15 K	0.395	1401.5	44.86	23.1
333.15 K	0.465	1390.3	43.46	18.3
343.15 K	0.551	1379.2	42.23	15
353.15 K	0.633	1368.9	40.44	13.2

COCC[N+]1(C)CCCCC1.O=S(=O)([N-]S(=O)(=O)C(F)(F)F)C(F)(F)F
Settings	electrical conductivity [S/m]	mass density [kg/m3]	surface tension liquid-gas [mN/m]	viscosity [mPa·s]
298.15 K	0.209	1433.2	44.65	69.89
303.15 K	0.241	1429	44.06	55.79
313.15 K	0.287	1419.8	43.2	35.69
323.15 K	0.325	1410.7	42.01	26
333.15 K	0.396	1401.7	40.98	19.8
343.15 K	0.489	1392.5	40.19	15.6
353.15 K	0.599	1383.3	38.83	13.8
